pIC50: −log10 of the molar value.
System: Human primary T cells
Assay: IL-2 ELISA, human primary T cell, anti-CD3+CD28+ (whole cell assay)
Assay type: cell-based
Conditions: human primary T cells stimulated with anti-CD3 + anti-CD28, 24 hours
In short: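 PBMC-derived T cells, pre-expanded on αCD3/αCD28 with IL-2 and then washed free of IL-2, were preincubated with compound for 1 hr at 37° C (100,000 cells/well). They were then stimulated on 1 μg/ml αCD3 plus 5 μg/ml αCD28 for 24 h, and supernatant IL-2 was measured by ELISA. The counter-assay used 0.5 ng/ml PMA plus 0.1 μM ionomycin instead.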

Structure (SMILES)	pIC50 (Homo sapiens, T-cell, 24 h)	pIC50
CC1(C)CC(Nc2nc(Nc3ccc4c(c3)OCC(CN3CCOCC3)O4)ncc2F)CC(C)(C)N1 (stereo not drawn) [II-8, 5-fluoro-N2-(2,3-dihydro-2-(morpholinomethyl)benzo[b][1,4]dioxin-6-yl)-N4-(2,2,6,6-tetramethylpiperidin-4-yl)pyrimidine-2,4-diamine]	< 6.00	
CC1(C)CC(Nc2nc(Nc3ccc4c(c3)OC(C)(C)C(=O)N4CCF)ncc2F)CC(C)(C)N1 [II-9, N2-[2,2-Dimethyl-4-(2-fluoroethyl)-1,4-benzoxazin-3-one-7-yl]-5-fluoro-N4-(2,2,6,6-tetramethylpiperidin-4-yl)-2,4-pyrimidinediamine]	> 6.60	
CC1(C)CC(Nc2nc(Nc3ccc4c(c3)OCCO4)ncc2F)CC(C)(C)N1 [II-10, N2-(3,4-Ethylenedioxy)phenyl-5-fluoro-N4-(2,2,6,6-tetramethylpiperidin-4-yl)-2,4-pyrimidinediamine]		< 6.00
Cc1nnnn1-c1cc(Nc2ncc(F)c(NC3CC(C)(C)N(C)C(C)(C)C3)n2)ccc1OC1CCN(C(C)C)CC1 [III-1, 5-fluoro-N2-(4-(1-isopropylpiperidin-4-yloxy)-3-(5-methyl-1H-tetrazol-1-yl)phenyl)-N4-(1,2,2,6,6-pentamethylpiperidin-4-yl)pyrimidine-2,4-diamine]	6.30 to 6.60	
Cc1nnnn1-c1cc(Nc2ncc(F)c(NC3CC(C)(C)NC(C)(C)C3)n2)ccc1OC1CCN(C(C)C)CC1 [III-2, 5-fluoro-N2-(4-(1-isopropylpiperidin-4-yloxy)-3-(5-methyl-1H-tetrazol-1-yl)phenyl)-N4-(2,2,6,6-tetramethylpiperidin-4-yl)pyrimidine-2,4-diamine]	< 6.00	
CC(C)N1CCC(Oc2ccc(Nc3ncc(F)c(NC4CC(C)(C)N(CC(F)(F)F)C(C)(C)C4)n3)cc2OC(F)F)CC1 [III-3, N2-(3-(Difluoromethoxy)-4-(1-isopropylpiperidin-4-yloxy)phenyl)-5-fluoro-N4-(2,2,6,6-tetramethyl-1-(2,2,2-trifluoroethyl)piperidin-4-yl)pyrimidine-2,4-diamine]	< 6.00	
CC(=O)N1C(C)(C)CC(Nc2nc(Nc3ccc(OC4CCN(C(C)C)CC4)c(OC(F)F)c3)ncc2F)CC1(C)C [III-4, 1-(4-(2-(3-(Difluoromethoxy)-4-(1-isopropylpiperidin-4-yloxy)phenylamino)-5-fluoropyrimidin-4-ylamino)-2,2,6,6-tetramethylpiperidin-1-yl)ethanone]	< 6.00	
CC1CC(Nc2nc(Nc3cccc(-n4cnnn4)c3)ncc2F)CC(C)N1C1CC1 (stereo not drawn) [III-5, N^2-(3-(1H-tetrazol-1-yl)phenyl)-N4-(1-cyclopropyl-2,6-dimethylpiperidin-4-yl)-5-fluoropyrimidine-2,4-diamine]	6.30 to 6.60	
Cc1ccc(Nc2ncc(F)c(NC3CC(C)N(C4CC4)C(C)C3)n2)cc1-n1cnnn1 (stereo not drawn) [III-6, N^4-(1-cyclopropyl-2,6-dimethylpiperidin-4-yl)-5-fluoro-N2-(4-methyl-3-(1H-tetrazol-1-yl)phenyl)pyrimidine-2,4-diamine]	6.30 to 6.60	
COc1cc(Nc2ncc(F)c(NC3CC(C)N(C4CC4)C(C)C3)n2)cc(-n2cnnn2)c1 (stereo not drawn) [III-7, N^4-(1-cyclopropyl-2,6-dimethylpiperidin-4-yl)-5-fluoro-N2-(3-methoxy-5-(1H-tetrazol-1-yl)phenyl)pyrimidine-2,4-diamine]	> 6.60	
Cc1nnnn1-c1cccc(Nc2ncc(F)c(NC3CC(C)N(C4CC4)C(C)C3)n2)c1 (stereo not drawn) [III-8, N^4-(1-cyclopropyl-2,6-dimethylpiperidin-4-yl)-5-fluoro-N2-(3-(5-methyl-1H-tetrazol-1-yl)phenyl)pyrimidine-2,4-diamine]	> 6.60	
CC1CC(Nc2nc(Nc3cccc(-n4nnnc4SCC(F)(F)F)c3)ncc2F)CC(C)N1C1CC1 (stereo not drawn) [III-9, N^4-(1-cyclopropyl-2,6-dimethylpiperidin-4-yl)-5-fluoro-N2-(3-(5-(2,2,2-trifluoroethylthio)-1H-tetrazol-1-yl)phenyl)pyrimidine-2,4-diamine]	6.30 to 6.60	

Reference: patent US9149475B2, “Protein kinase C inhibitors and uses thereof” (Rigel Pharmaceuticals, Inc., priority 2009, dated 2015)
